Assay [1] relates to quadriceps muscle of aged C57Bl/6JRj mice. Put plainly: Quadriceps transcript profiling using RNA sequencing. The format is in vivo, mouse. Conditions: aged myriocin vs DMSO treated mice. The protocol:
To identify biological pathways whose modulation could explain improved muscle function upon myriocin treatment, transcriptomes of quadriceps muscle of aged myriocin and DMSO treated mice using RNA sequencing were compared. Gene set enrichment analysis (GSEA) ranking transcripts based on their fold change were performed.
Quadriceps transcript profiling using RNA sequencing. Quadriceps muscles were collected and snap-frozen in liquid nitrogen from C57Bl/6JRj mice undergoing intraperitoneal myriocin treatment for 10 weeks on a chow diet starting at the age of 18 months. RNA was isolated using Direct-zol RNA kit (Zymo, Irvine, Calif.). RNA quality was assessed using Agilent 2100 BioAnalyzer (Agilent, Santa Clara, Calif.). Samples with RIN≥8, 28S/18S≥1.0, and c≥20 ng/μL were included in analyses. […] Sequencing libraries were prepared by BGI genomics using the DNBsea™ technology. Paired end sequencing with 100 cycles was performed using the BGISEQ-500 instrument. After removal of adaptor sequences and low quality reads, at least 56 million reads per sample was obtained. SOAPnuke was used to obtain clean reads (parameters -l 15, -q 0.2, -n 0.05). Reads were mapped using STAR aligner version 2.5.2b using the mouse GRCm38 genome assembly and the release 91 GTF annotation from Ensembl. Htseq-count version 0.6.0 was used to count the number of reads mapping to genes (mode=union, type=exon, idattr=gene_id). Transcript displaying higher expression than log 2(CPM+1)>0.5 in at least 3 samples were included in analyses. Differential gene expression analysis and expression normalization was performed using voom, ‘variance modeling at the observational level’, adjusting for sacrifice date. At individual gene level, no gene passed the multiple testing correction threshold. Benjamini-Hochberg correction for multiple testing was used. For gene set enrichment analysis using gene ontology (GO) categories, transcripts were ordered according to their log 2-transformed fold change, and 100,000 permutations were used. Adjusted p-value<0.05 was considered significant.

Assay [2] relates to human primary myoblasts from IBM donors. As to the kind of experiment: Proteostat staining of IBM patient myoblasts. Conditions: 30 μM MYR for 24 h. The format is cell-based. How it is done: FIG. 16. Quantitative Proteostat signal normalized over the number of cells in human primary myoblasts from IBM donors (above) and APPSwe-expressing C2C12 myoblasts (below) decreases after treatment with 30 μM MYR for 24 h. Values are expressed as mean±s.e.m. ***P:0.001; ****P:0.0001. Differences between two groups were assessed using Student's two-tailed t-tests (error bars: 95% confidence intervals).
Cell lines from IBM patients featuring impaired proteostasis were obtained. This was validated using Proteostat staining which targets general disruption in proteostasis.

The test system of assay [3] is muscle stem cells (MuSCs). As to the kind of experiment: MuSC count in muscle of treated aged mice (FACS, PAX7 immunostaining). The assay is classed as in vivo, mouse. An excerpt:
Muscle stem cells (MuSCs) are capable of giving rise to mature muscle fibers, and their regenerative capacity has been reported to be impaired upon aging. […] Consistent with this, PAX7 expression correlated negatively with the first PC of the ceramide synthetic pathway in both human (FIG. 3e) and mouse (FIG. 3f) skeletal muscle. To study whether increased Pax7 transcript abundance in skeletal muscle reflects elevated MuSC count, a7 integrin/CD34 double positive cells were isolated from the hind-limbs using fluorescence-activated cell sorting (FACS).
Stem cell isolation. Gastrocnemius, soleus, and quadriceps muscles from both hindlimbs were excised and transferred into PBS on ice. […] Stained cells were analyzed and sorted using the FACSAria II instrument (BD Biosciences). […]
Histology. […] Microscopy images of fluorescence from muscle fibers were analyzed using the ImageJ software. Centralized nuclei percent, minimal Feret diameter and cross-sectional area in TA muscles were determined using the ImageJ software quantification of laminin, dystrophin, and DAPI-stained muscle images from VS120-S6-W slides scanner (Olympus). […] The mean cross-sectional area of muscle fibers was calculated as the average cross-sectional area of 2,000 fibers per from sample. 7-8 mouse samples per condition were used for histological quantification of donor mice. […] For each quantification, 3 or more mice were used.

For the molecule `CCCCCCC(=O)CCCCCCC=CCC(O)C(O)C(N)(CO)C(=O)O` (centres unmarked) [myriocin, 2-Amino-3,4-dihydroxy-2-(hydroxymethyl)-14-oxoicos-6-enoic acid], in assay [1], the “expression of Pax7 in quadriceps muscle” value is on record as “upregulated”. The “most downregulated pathways (gene set enrichment analysis)” value in assay [1] (quadriceps RNA-seq) is “lipid metabolism and inflammation”. Moreover, the “upregulated pathways (gene set enrichment analysis)” value in assay [1] (quadriceps RNA-seq) was “muscle contraction and differentiation”. In addition, in assay [1] (quadriceps), the “Myog and Myf5 transcripts in skeletal muscle” value is “upregulated”. For the same molecule, the “Proteostat signal normalized over the number of cells (protein aggregates)” value is on record as “clearing protein aggregates” in assay [2] and “decreases” in assay [2] (listed as MYR). Further, in assay [3] (aged myriocin treated mice), the “number of PAX7+ muscle cells in TA tissue sections” value is listed as “elevated number”. The “number of MuSCs in hindlimbs (a7 integrin/CD34 double positive cells, FACS)” value in assay [3] (young, aged, and aged myriocin treated mice) was “restored the MuSC pool of aged mice close to that of young mice”.

The record behind these values is patent US20220288004A1, “TREATMENT AND PREVENTION OF AGING RELATED-DISEASE AND/OR AGING BY THE INHIBITION OF SPHINGOLIPIDS” (ECOLE POLYTECHNIQUE FEDERALE DE LAUSANNE (EPFL), priority 2019, published 2022).
